From patent publication US20200370045A1, “METHOD OF TREATING TYPE II DIABETES AND OBESITY AND METHOD OF SCREENING A MEDICAMENT FOR THE SAME” (Tsinghua University, priority 2017, published 2020)

Assays:
Format in all cases: in vivo
microRNA-708 [1] = assay: Glucose tolerance test (GTT) in obese mice treated with antisense nucleic acid of microRNA-708; conditions: obese mice treated with antisense nucleic acids; FIG. 14
Procedure: (§1) As obesity is closely related to type II diabetes, the present inventors also examined the role of microRNA-708 in insulin sensitivity, where insulin tolerance test (ITT) and glucose tolerance test (GTT) were adopted. ITTs of the microRNA-708 knockout mice were assayed 0, 15, 30, 60, and 90 min after an intraperitoneal injection of insulin (diluted as 0.5 U/ml in saline and dosed at 0.5-1.2 U insulin per kg body mass, e.g., 0.5 U insulin per kg body mass, […]) following a 4 h fast. GTTs of the microRNA-708 knockout mice were assayed 0, 15, 30, 60, and 90 min after an intraperitoneal injection of glucose (diluted as 20% glucose solution in saline and dosed at 0.5-2 g glucose per kg body mass, e.g., 1 g glucose per kg body mass) following overnight fast.
(§2) A designed RNA sequence ([…] (SEQ ID NO: 2)), reverse complementary to microRNA-708, was subcutaneously injected at 10 D/g to 2-month old obese mice (fed with HFD for two months) weekly for four weeks.

microRNA-708 [2] = assay: Insulin tolerance test (ITT) in obese mice treated with antisense nucleic acid of microRNA-708; conditions: 2-month old obese mice fed with HFD for two months; subcutaneously injected at 10 D/g weekly for four weeks; FIG. 15
Procedure: as §1, §2

microRNA-708 [3] = assay: Obesity level of HFD-fed obese mice treated with antisense nucleic acid of microRNA-708; conditions: 2-month old obese mice fed with HFD for two months; subcutaneously injected at 10 D/g weekly for four weeks; FIG. 13
From the text: as §2

For CCCAGCUAGACUUGUAAGUCCUU [SEQ ID NO: 2], the glucose tolerance (microRNA-708 [1]) was “obvious relieved”, the “insulin tolerance symptoms (insulin resistance)” value (microRNA-708 [2]) was “significantly alleviated” and the obesity levels (microRNA-708 [3]) was “declined distinctly”.
